Experimental data: patent publication US8192962B2, “Processes for detecting toxic substances” (Daikin Industries, Ltd., priority 2001, dated 2012)

System: Unknown protein yeast genes
Assay: DNA chip mRNA expression in yeast, unknown protein yeast genes (Table 1)
Format: cell-based, Saccharomyces cerevisiae S288C
Outline: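 Values are treated/untreated fluorescence ratios from a whole-genome yeast DNA chip hybridized over 12 hours at 65° C with Cy3- or Cy5-labelled cDNA from poly(A) mRNA. Log-phase S288C yeast in YPD at 25° C had received a single toxic chemical for two hours, dosed to slow growth without killing.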

Compound: O=[N+]([O-])c1cc[n+]([O-])c2ccccc12 [(5), 4-nitroquinolin-N-oxide]
- The level of expressed mRNA in the presence of chemical substance/The level of expressed mRNA in the absence of chemical substance (yeast gene YKL071W): 1.1
- The level of expressed mRNA in the presence of chemical substance/The level of expressed mRNA in the absence of chemical substance (yeast gene YKL086W, incubated two hours with chemical substance): 0.8
- The level of expressed mRNA in the presence of chemical substance/The level of expressed mRNA in the absence of chemical substance (yeast gene YKL151C, incubated two hours with chemical substance): 1.0
- The level of expressed mRNA in the presence of chemical substance/The level of expressed mRNA in the absence of chemical substance (yeast gene YKL153W, incubated two hours with chemical substance): 1.0
- The level of expressed mRNA in the presence of chemical substance/The level of expressed mRNA in the absence of chemical substance (yeast gene YKL195W, incubated two hours with chemical substance): 1.9
- The level of expressed mRNA in the presence of chemical substance/The level of expressed mRNA in the absence of chemical substance (yeast gene YKR091W, incubated two hours with chemical substance): 1.6
- The level of expressed mRNA in the presence of chemical substance/The level of expressed mRNA in the absence of chemical substance (yeast gene YLR054C, incubated two hours with chemical substance): 1.3
- The level of expressed mRNA in the presence of chemical substance/The level of expressed mRNA in the absence of chemical substance (yeast gene YLR149C, incubated two hours with chemical substance): 0.8
- The level of expressed mRNA in the presence of chemical substance/The level of expressed mRNA in the absence of chemical substance (yeast gene YLR152C, incubated two hours with chemical substance): 1.1
- The level of expressed mRNA in the presence of chemical substance/The level of expressed mRNA in the absence of chemical substance (yeast gene YLR194C, incubated two hours with chemical substance): 1.0
- The level of expressed mRNA in the presence of chemical substance/The level of expressed mRNA in the absence of chemical substance (yeast gene YLR324W, incubated two hours with chemical substance): 1.3
- The level of expressed mRNA in the presence of chemical substance/The level of expressed mRNA in the absence of chemical substance (yeast gene YLR339C): 1.3
- The level of expressed mRNA in the presence of chemical substance/The level of expressed mRNA in the absence of chemical substance (yeast gene YLR350W, incubated two hours with chemical substance): 0.8
- The level of expressed mRNA in the presence of chemical substance/The level of expressed mRNA in the absence of chemical substance (yeast gene YLR387C, incubated two hours with chemical substance): 1.3
- The level of expressed mRNA in the presence of chemical substance/The level of expressed mRNA in the absence of chemical substance (yeast gene YLR460C): 1.3
- The level of expressed mRNA in the presence of chemical substance/The level of expressed mRNA in the absence of chemical substance (yeast gene YML117W, incubated two hours with chemical substance): 0.8
- The level of expressed mRNA in the presence of chemical substance/The level of expressed mRNA in the absence of chemical substance (yeast gene YMR007W): 1.3
- The level of expressed mRNA in the presence of chemical substance/The level of expressed mRNA in the absence of chemical substance (yeast gene YMR009W, incubated two hours with chemical substance): 1.9
- The level of expressed mRNA in the presence of chemical substance/The level of expressed mRNA in the absence of chemical substance (yeast gene YMR067C, incubated two hours with chemical substance): 1.1
- The level of expressed mRNA in the presence of chemical substance/The level of expressed mRNA in the absence of chemical substance (yeast gene YMR090W): 0.7
- The level of expressed mRNA in the presence of chemical substance/The level of expressed mRNA in the absence of chemical substance (yeast gene YMR095C, incubated two hours with chemical substance): 0.9
- The level of expressed mRNA in the presence of chemical substance/The level of expressed mRNA in the absence of chemical substance (yeast gene YMR097C, incubated two hours with chemical substance): 0.7
- The level of expressed mRNA in the presence of chemical substance/The level of expressed mRNA in the absence of chemical substance (yeast gene YMR102C, incubated two hours with chemical substance): 1.2
- The level of expressed mRNA in the presence of chemical substance/The level of expressed mRNA in the absence of chemical substance (yeast gene YMR107W, incubated two hours with chemical substance): 1.1
- The level of expressed mRNA in the presence of chemical substance/The level of expressed mRNA in the absence of chemical substance (yeast gene YMR180C, incubated two hours with chemical substance): 1.0
- The level of expressed mRNA in the presence of chemical substance/The level of expressed mRNA in the absence of chemical substance (yeast gene YMR184W, incubated two hours with chemical substance): 0.8
- The level of expressed mRNA in the presence of chemical substance/The level of expressed mRNA in the absence of chemical substance (yeast gene YMR191W, incubated two hours with chemical substance): 1.5
- The level of expressed mRNA in the presence of chemical substance/The level of expressed mRNA in the absence of chemical substance (yeast gene YMR295C, incubated two hours with chemical substance): 1.4
- The level of expressed mRNA in the presence of chemical substance/The level of expressed mRNA in the absence of chemical substance (yeast gene YMR316W, incubated two hours with chemical substance): 1.1
- The level of expressed mRNA in the presence of chemical substance/The level of expressed mRNA in the absence of chemical substance (yeast gene YNL044W, incubated two hours with chemical substance): 1.2
- The level of expressed mRNA in the presence of chemical substance/The level of expressed mRNA in the absence of chemical substance (yeast gene YNL074C, incubated two hours with chemical substance): 1.3
- The level of expressed mRNA in the presence of chemical substance/The level of expressed mRNA in the absence of chemical substance (yeast gene YNL092W, incubated two hours with chemical substance): 0.9
- The level of expressed mRNA in the presence of chemical substance/The level of expressed mRNA in the absence of chemical substance (yeast gene YNL115C, incubated two hours with chemical substance): 0.8
- The level of expressed mRNA in the presence of chemical substance/The level of expressed mRNA in the absence of chemical substance (yeast gene YNL156C, incubated two hours with chemical substance): 1.6
- The level of expressed mRNA in the presence of chemical substance/The level of expressed mRNA in the absence of chemical substance (yeast gene YNL234W, incubated two hours with chemical substance): 1.7
- The level of expressed mRNA in the presence of chemical substance/The level of expressed mRNA in the absence of chemical substance (yeast gene YNL281W, incubated two hours with chemical substance): 1.7
- The level of expressed mRNA in the presence of chemical substance/The level of expressed mRNA in the absence of chemical substance (yeast gene YNL305C, incubated two hours with chemical substance): 1.3
- The level of expressed mRNA in the presence of chemical substance/The level of expressed mRNA in the absence of chemical substance (yeast gene YNR068C, incubated two hours with chemical substance): 1.7
- The level of expressed mRNA in the presence of chemical substance/The level of expressed mRNA in the absence of chemical substance (yeast gene YOL032W, incubated two hours with chemical substance): 1.4
- The level of expressed mRNA in the presence of chemical substance/The level of expressed mRNA in the absence of chemical substance (yeast gene YOL036W, incubated two hours with chemical substance): 1.2
- The level of expressed mRNA in the presence of chemical substance/The level of expressed mRNA in the absence of chemical substance (yeast gene YOL047C, incubated two hours with chemical substance): 1.4
- The level of expressed mRNA in the presence of chemical substance/The level of expressed mRNA in the absence of chemical substance (yeast gene YOL071W, incubated two hours with chemical substance): 0.9
- The level of expressed mRNA in the presence of chemical substance/The level of expressed mRNA in the absence of chemical substance (yeast gene YOL082W, incubated two hours with chemical substance): 1.5
- The level of expressed mRNA in the presence of chemical substance/The level of expressed mRNA in the absence of chemical substance (yeast gene YOL083W, incubated two hours with chemical substance): 1.4
- The level of expressed mRNA in the presence of chemical substance/The level of expressed mRNA in the absence of chemical substance (yeast gene YOL117W, incubated two hours with chemical substance): 1.7
- The level of expressed mRNA in the presence of chemical substance/The level of expressed mRNA in the absence of chemical substance (yeast gene YOL131W, incubated two hours with chemical substance): 1.5
- The level of expressed mRNA in the presence of chemical substance/The level of expressed mRNA in the absence of chemical substance (yeast gene YOL150C): 1.0
- The level of expressed mRNA in the presence of chemical substance/The level of expressed mRNA in the absence of chemical substance (yeast gene YOL162W, incubated two hours with chemical substance): 0.9
- The level of expressed mRNA in the presence of chemical substance/The level of expressed mRNA in the absence of chemical substance (yeast gene YOR019W, incubated two hours with chemical substance): 1.4
- The level of expressed mRNA in the presence of chemical substance/The level of expressed mRNA in the absence of chemical substance (yeast gene YOR129C): 1.3
- The level of expressed mRNA in the presence of chemical substance/The level of expressed mRNA in the absence of chemical substance (yeast gene YOR197W, incubated two hours with chemical substance): 0.6
- The level of expressed mRNA in the presence of chemical substance/The level of expressed mRNA in the absence of chemical substance (yeast gene YPL087W, incubated two hours with chemical substance): 0.6
- The level of expressed mRNA in the presence of chemical substance/The level of expressed mRNA in the absence of chemical substance (yeast gene YPL196W, incubated two hours with chemical substance): 1.5
- The level of expressed mRNA in the presence of chemical substance/The level of expressed mRNA in the absence of chemical substance (yeast gene YPL206C, incubated two hours with chemical substance): 0.7
- The level of expressed mRNA in the presence of chemical substance/The level of expressed mRNA in the absence of chemical substance (yeast gene YPL222W, incubated two hours with chemical substance): 1.2
- The level of expressed mRNA in the presence of chemical substance/The level of expressed mRNA in the absence of chemical substance (yeast gene YPL272C): 1.3
- The level of expressed mRNA in the presence of chemical substance/The level of expressed mRNA in the absence of chemical substance (yeast gene YPR023C, incubated two hours with chemical substance): 1.1
- The level of expressed mRNA in the presence of chemical substance/The level of expressed mRNA in the absence of chemical substance (yeast gene YPR150W): 1.3
- The level of expressed mRNA in the presence of chemical substance/The level of expressed mRNA in the absence of chemical substance (yeast gene YPR151C, incubated two hours with chemical substance): 1.3
